17 molecules from ChEMBL document CHEMBL3352491, “Novel semicarbazides and ureas of primaquine with bulky aryl or hydroxyalkyl substituents: synthesis, cytostatic and antioxidative activity” (Eur J Med Chem, 2014) can be followed below.

Each structure is given as a SMILES string.

As a reminder, the IC50 is the concentration at which inhibition is half-maximal. What is called inhibition is the relative decrease from the control value, in per cent.

The nature of series [1]: Cytostatic activity against human Molt4/C8 cells assessed as growth inhibition after 3 to 4 days by MTT assay. Type of series: functional, cell-based. The note with it: MOLT-4. For orientation: Formazan colour is commonly taken as a measure of viable cells.
The nature of series [2]: Antioxidant activity assessed as DPPH scavenging activity at 100 uM after 20 mins by spectrophotometry. Type of series: physicochemical. For orientation: DPPH is a stable violet radical that fades when it is reduced.
The nature of series [3]: Cytostatic activity against human MIAPaCa2 cells assessed as growth inhibition after 3 to 4 days by MTT assay. Type of series: functional, cell-based. The note with it: MIA PaCa-2.
A short description of series [4]: Antioxidant activity assessed as DPPH scavenging activity at 100 uM after 60 mins by spectrophotometry. Type of series: physicochemical. To be noted: 1 h.
The nature of series [5]: Antioxidant activity assessed as inhibition of lipid peroxidation at 100 uM by spectrophotometry. Type of series: physicochemical.
Series [6] has as its system SW-620. Kind of series: Cytostatic activity against human SW620 cells assessed as growth inhibition after 3 to 4 days by MTT assay. It is filed as functional, cell-based.
The subject of series [7] is MCF7. Briefly: Cytostatic activity against human MCF7 cells assessed as growth inhibition after 3 to 4 days by MTT assay. It is filed as functional, cell-based.
Series [8] relates to CCRF-CEM. Briefly: Cytostatic activity against human CEM cells assessed as growth inhibition after 3 to 4 days by MTT assay. It is filed as functional, cell-based.
Series [9] has as its system L1210. Kind of series: Cytostatic activity against mouse L1210 cells assessed as growth inhibition after 3 to 4 days by MTT assay. It is filed as functional, cell-based.
Series [10] deals with Lipoxygenase (Glycine max, UniProt Q39829). Kind of series: Inhibition of soybean LOX using sodium linoleate as substrate by spectrophotometry.
The test system of series [11] is HeLa. Kind of series: Cytostatic activity against human HeLa cells assessed as growth inhibition after 3 to 4 days by MTT assay. It is filed as functional, cell-based.
Series [12] can be described thus: Cytostatic activity against human H460 cells assessed as growth inhibition after 3 to 4 days by MTT assay. Type of series: functional, cell-based. To be noted: NCI-H460.
Series [13] deals with Lipoxygenase (Glycine max) (UniProt Q39829). Kind of series: Inhibition of soybean LOX using sodium linoleate as substrate at 100 uM by spectrophotometry.

As for `COc1cc(NC(C)CCCNC(=O)NC(c2ccccc2)c2ccc(Cl)cc2)c2ncccc2c1` (centres undefined), the IC50 in series [1] was at least 250 µM; in [3], 181 µM; in series [6], above 100 µM; in series [7] it was above 100 µM; in series [8] it was 86 µM; in [9], 94 µM. For the same molecule, the IC50 in series [10] (read-out: IC50) is 57.9 µM; in series [11], 186 µM; in series [12], above 100 µM. Besides, the figures for the Activity in series [2] and in [4] were 12% and 24%, respectively. For the same molecule, the “inhibition (INH)” value in series [5] amounted to 90%.
For `CN(C(=O)n1nnc2ccccc21)C(c1ccccc1)c1ccccc1`, the IC50 in series [1] was 28 µM; in series [3], 26 µM; in series [6], at least 100 µM; in series [7] it was 23 µM; in [8], 24 µM; in series [9], 15 µM. Further, the IC50 in [10] (read-out: IC50) amounted to 87.5 µM; in series [11], 25 µM; in series [12] it was 27 µM. Moreover, the Activity in series [2] is 3%; in [4], “Not Active”. Besides, in series [5], the “inhibition (INH)” value is reported as 76%.
Take `COc1ccc(C(=NNC(=O)NCCCC(C)Nc2cc(OC)cc3cccnc23)c2ccc(OC)cc2)cc1` (centres undefined): the IC50 is above 250 µM in series [1]; above 250 µM in series [3]; above 100 µM in [6]; 6 µM in [7]; above 250 µM in series [8]; above 250 µM in series [9]. Besides, the IC50 in series [10] (read-out: IC50) is 60 µM; in [11], above 250 µM; in series [12], above 100 µM. In addition, the Activity in [2] was 5%; in series [4], 14%. In series [5], the “inhibition (INH)” value came out at 98%.
As for `NNC(=O)NC(c1ccccc1)c1ccc(Cl)cc1` (centres undefined), the IC50 was at least 250 µM in series [1]; 178 µM in series [3]; above 100 µM in series [6]; at least 100 µM in series [7]; 217 µM in series [8]; at least 250 µM in [9]. The half-inhibitory concentration (IC50) is 182 µM in [11] and above 100 µM in [12]. The Activity in [2] is listed as 14%; in series [4], 27%. Besides, in [5], the “inhibition (INH)” value was 52%. In addition, in series [13], the inhibition amounted to 9%.
With `COc1ccc(C(=NNC(=O)NNC(=O)NCCCC(C)Nc2cc(OC)cc3cccnc23)c2ccc(OC)cc2)cc1` (centres undefined), the IC50 in series [1] was 12 µM; in series [3] it was 11 µM; in [6], at least 100 µM; in series [7] it was 1 µM; in series [8], 8 µM; in series [9], 7.5 µM. In addition, the results for the IC50 in [10] (read-out: IC50), in series [11] and in [12] were 75 µM, 50 µM and 5 µM, respectively. Further, the Activity in [2] is 37%; in series [4] it was 84%. Besides, in [5], the “inhibition (INH)” value is recorded as 82%.
For the molecule `COc1cc(NC(C)CCCNC(=O)NCCCC(C)Nc2cc(OC)cc3cccnc23)c2ncccc2c1` (centres undefined), the IC50 in [1] is above 250 µM; in series [3] it was 186 µM; in series [6], above 100 µM; in [7], 6 µM; in [8] it was 5 µM; in series [9], 92 µM. Moreover, the values for the IC50 in [11] and in [12] were above 250 µM and above 100 µM, respectively. Besides, the Activity amounted to 20% in series [2] and 32% in [4]. Moreover, the “inhibition (INH)” value in series [5] is given as 89%. In series [13], this molecule returned an inhibition of 6%.
On to `COc1cc(NC(C)CCCNC(=O)NNC(=O)NCCCCCO)c2ncccc2c1` (centres undefined), for which the IC50 was at least 250 µM in [1]; 168 µM in [3]; above 100 µM in [6]; 4 µM in series [7]; 170 µM in series [8]; above 250 µM in series [9]. For the same molecule, the IC50 is at least 250 µM in series [11] and above 100 µM in [12]. Besides, the Activity is 14% in series [2] and 32% in series [4]. Moreover, the “inhibition (INH)” value in [5] is listed as 54%. The molecule further had an inhibition in [13] of 4%.
On to `O=C(NC(c1ccccc1)c1ccc(Cl)cc1)NC(c1ccccc1)c1ccc(Cl)cc1` (centres undefined), for which the IC50 was above 250 µM in series [1]; 97 µM in [3]; above 100 µM in [6]; above 100 µM in series [7]; above 250 µM in series [8]; 250 µM in series [9]. Further, the values for the half-maximal inhibitory concentration (IC50) in series [11] and in series [12] were above 250 µM and above 100 µM, respectively. Besides, the Activity entry in series [2] and in series [4] was “Not Active” each time. Besides, in series [5], the “inhibition (INH)” value was determined as 33%. The inhibition in [13] stood at 38%.
Consider `COc1cc(NC(C)CCCNC(=O)NNC(=O)NCCNC(c2ccccc2)(c2ccccc2)c2ccccc2)c2ncccc2c1` (centres undefined), for which the IC50 was determined as 8 µM in series [1]; 5 µM in [3]; 7 µM in [6]; 2 µM in series [7]; 4.2 µM in series [8]; 6.2 µM in series [9]. Also, the IC50 in series [10] (read-out: IC50) was determined as 100 µM; in series [11], 10 µM; in series [12], 4 µM. Also, the Activity stood at 30% in [2] and 41% in series [4]. Further, the “inhibition (INH)” value in series [5] is given as 88%.
On to `COc1cc(NC(C)CCCNC(=O)NNC(=O)N(CCO)CCO)c2ncccc2c1` (centres undefined), for which the half-maximal inhibitory concentration (IC50) was above 250 µM in [1]; above 250 µM in [3]; above 100 µM in [6]; 29 µM in series [7]; above 250 µM in [8]; above 250 µM in series [9]. Further, the IC50 in series [11] was above 250 µM; in series [12] it was above 100 µM. The Activity in series [2] is recorded as 25%; in [4] it was 45%. Further, in [5], the “inhibition (INH)” value was 43%. The same molecule showed an inhibition in series [13] of 30%.
As for `COc1cc(NC(C)CCCNC(=O)NNC(=O)NCCCO)c2ncccc2c1` (centres undefined), the IC50 in [1] was above 250 µM; in series [3], at least 250 µM; in series [6], above 100 µM; in [7] it was 13 µM; in series [8], above 250 µM; in series [9], above 250 µM. Further, the IC50 result is “Not Active” in [10], above 250 µM in series [11] and above 100 µM in [12]. Besides, the Activity in series [2] was 9%; in [4], 20%. The “inhibition (INH)” value in series [5] is 45%.
For `COc1cc(NC(C)CCCNC(=O)NNC(=O)NC(c2ccccc2)c2ccc(Cl)cc2)c2ncccc2c1` (centres undefined), the IC50 in series [1] stood at 9.6 µM; in [3], 6 µM; in series [6], 3 µM; in [7] it was 2 µM; in series [8], 5.5 µM; in [9], 8.8 µM. The IC50 in series [10] (read-out: IC50) was determined as 70.5 µM; in series [11] it was 6.9 µM; in series [12] it was 3 µM. For the same molecule, the Activity is 30% in series [2] and 55% in [4]. Besides, the “inhibition (INH)” value in series [5] is on record as 77%.
As to `COc1cc(NC(C)CCCNC(=O)NCCNC(c2ccccc2)(c2ccccc2)c2ccccc2)c2ncccc2c1` (centres undefined), the IC50 in series [1] was determined as 210 µM; in series [3], 40 µM; in [6], 54 µM; in series [7] it was 45 µM; in series [8], 10 µM; in series [9], 40 µM. Besides, the results for the IC50 in series [10] (read-out: IC50), in series [11] and in series [12] were 93 µM, 38 µM and above 100 µM, respectively. Also, the Activity entry in [2] is reported as “Not Active”; in [4], 12%. The “inhibition (INH)” value in [5] is recorded as 89%.
As for `O=C1NCCN1C(c1ccccc1)(c1ccccc1)c1ccccc1`, the IC50 in [1] is 21 µM; in [3], 31 µM; in series [6], at least 100 µM; in series [7], 63 µM; in series [8], 27 µM; in series [9], 68 µM. Moreover, the IC50 in [11] is 102 µM; in series [12], above 100 µM. Besides, the Activity result in [2] and in series [4] was “Not Active” in each case. For the same molecule, the “inhibition (INH)” value in series [5] was 20%. The molecule further returned an inhibition in [13] of 6%.
Take `COc1cc(NC(C)CCCNC(=O)NNC(=O)NC(CO)(CO)CO)c2ncccc2c1` (centres undefined): the IC50 in series [1] is above 250 µM; in [3], above 250 µM; in series [6], above 100 µM; in series [7] it was 28 µM; in series [8], above 250 µM; in [9] it was above 250 µM. Further, the IC50 was above 250 µM in series [11] and above 100 µM in series [12]. Besides, the Activity in series [2] was 18%; in [4], 40%. Further, the “inhibition (INH)” value in [5] is 49%. In series [13], this molecule displayed an inhibition of 6%.
For `COc1cc(NC(C)CCCNC(=O)NN)c2ncccc2c1` (centres undefined), the IC50 was at least 250 µM in series [1]; at least 250 µM in [3]; above 100 µM in series [6]; 16 µM in series [7]; above 250 µM in series [8]; above 250 µM in series [9]. Besides, the values for the IC50 in series [11] and in series [12] were at least 250 µM and above 100 µM, respectively. Also, the Activity amounted to 61% in series [2] and 82% in series [4]. For the same molecule, in [5], the “inhibition (INH)” value is 70%. The molecule also showed an inhibition in [13] of 42%.
`COc1cc(NC(C)CCCNC(=O)NNC(=O)N(C)C(c2ccccc2)c2ccccc2)c2ncccc2c1` (centres undefined): the half-maximal inhibitory concentration (IC50) in series [1] is 19 µM; in series [3], 18 µM; in series [6], 27 µM; in [7], 5 µM; in [8], 10 µM; in series [9], 16 µM. Moreover, the IC50 in series [11] amounted to 22 µM; in series [12], 16 µM. Also, the Activity in [2] amounted to 44%; in [4], 73%. Also, the “inhibition (INH)” value in series [5] was found to be 69%. The molecule further yielded an inhibition in series [13] of 44%.
